This assay addresses T1, F508del in NIH 3T3 cells (Homo sapiens, UniProt P13569, DEL508-508).
T1 construct: expressed in transfected cells
Description: 3T3 assay: membrane potential optical assay for F508del correction. As to conditions: for EC50: F508del NIH 3T3 cells, compound incubation 18-24 hours at 37° C., forskolin activation, read-out: 3T3 EC50; for Emax: NIH3T3, F508del NIH 3T3 cells, efficacy compared to lumacaftor in combination with acutely added 300 nM Ivacaftor, read-out: 3T3 Max Activity (%). Format: cell-based, mouse. The text has this:
a. Membrane Potential Optical Methods for Assaying F508del Modulation Properties of Compounds
The assay utilizes fluorescent voltage sensing dyes to measure changes in membrane potential using a fluorescent plate reader (e.g., FLIPR III, Molecular Devices, Inc.) as a readout for increase in functional F508del in NIH 3T3 cells. The driving force for the response is the creation of a chloride ion gradient in conjunction with channel activation by a single liquid addition step after the cells have previously been treated with compounds and subsequently loaded with a voltage sensing dye.
b. Identification of Corrector Compounds
To identify correctors of F508del, a single-addition HTS assay format was developed. This HTS assay utilizes fluorescent voltage sensing dyes to measure changes in membrane potential on the FLIPR III as a measurement for increase in gating (conductance) of F508del in F508del NIH 3T3 cells. The F508del NIH 3T3 cell cultures were incubated with the corrector compounds at a range of concentrations for 18-24 hours at 37° C., and subsequently loaded with a redistribution dye. The driving force for the response is a Cl^− ion gradient in conjunction with channel activation with forskolin in a single liquid addition step using a fluorescent plate reader such as FLIPR III.
Bath Solution #1: (in mM) NaCl 160, KCl 4.5, CaCl2 2, MgCl2 1, HEPES 10, pH 7.4 with NaOH.
Chloride-free bath solution: Chloride salts in Bath Solution #1 (above) are substituted with gluconate salts.
NIH3T3 mouse fibroblasts stably expressing F508del are used for optical measurements of membrane potential. The cells are maintained at 37° C. in 5% CO2 and 90% humidity in Dulbecco's modified Eagle's medium supplemented with 2 mM glutamine, 10% fetal bovine serum, 1×NEAA, b-ME, 1× pen/strep, and 25 mM HEPES in 175 cm^2 culture flasks. For all optical assays, the cells were seeded at ˜20,000/well in 384-well Matrigel-coated plates. For the correction assays, the cells are cultured at 37° C. with and without compounds for 16-24 hours.

T1 sequence (P13569 with tags, fused parts or gaps DEL508-508): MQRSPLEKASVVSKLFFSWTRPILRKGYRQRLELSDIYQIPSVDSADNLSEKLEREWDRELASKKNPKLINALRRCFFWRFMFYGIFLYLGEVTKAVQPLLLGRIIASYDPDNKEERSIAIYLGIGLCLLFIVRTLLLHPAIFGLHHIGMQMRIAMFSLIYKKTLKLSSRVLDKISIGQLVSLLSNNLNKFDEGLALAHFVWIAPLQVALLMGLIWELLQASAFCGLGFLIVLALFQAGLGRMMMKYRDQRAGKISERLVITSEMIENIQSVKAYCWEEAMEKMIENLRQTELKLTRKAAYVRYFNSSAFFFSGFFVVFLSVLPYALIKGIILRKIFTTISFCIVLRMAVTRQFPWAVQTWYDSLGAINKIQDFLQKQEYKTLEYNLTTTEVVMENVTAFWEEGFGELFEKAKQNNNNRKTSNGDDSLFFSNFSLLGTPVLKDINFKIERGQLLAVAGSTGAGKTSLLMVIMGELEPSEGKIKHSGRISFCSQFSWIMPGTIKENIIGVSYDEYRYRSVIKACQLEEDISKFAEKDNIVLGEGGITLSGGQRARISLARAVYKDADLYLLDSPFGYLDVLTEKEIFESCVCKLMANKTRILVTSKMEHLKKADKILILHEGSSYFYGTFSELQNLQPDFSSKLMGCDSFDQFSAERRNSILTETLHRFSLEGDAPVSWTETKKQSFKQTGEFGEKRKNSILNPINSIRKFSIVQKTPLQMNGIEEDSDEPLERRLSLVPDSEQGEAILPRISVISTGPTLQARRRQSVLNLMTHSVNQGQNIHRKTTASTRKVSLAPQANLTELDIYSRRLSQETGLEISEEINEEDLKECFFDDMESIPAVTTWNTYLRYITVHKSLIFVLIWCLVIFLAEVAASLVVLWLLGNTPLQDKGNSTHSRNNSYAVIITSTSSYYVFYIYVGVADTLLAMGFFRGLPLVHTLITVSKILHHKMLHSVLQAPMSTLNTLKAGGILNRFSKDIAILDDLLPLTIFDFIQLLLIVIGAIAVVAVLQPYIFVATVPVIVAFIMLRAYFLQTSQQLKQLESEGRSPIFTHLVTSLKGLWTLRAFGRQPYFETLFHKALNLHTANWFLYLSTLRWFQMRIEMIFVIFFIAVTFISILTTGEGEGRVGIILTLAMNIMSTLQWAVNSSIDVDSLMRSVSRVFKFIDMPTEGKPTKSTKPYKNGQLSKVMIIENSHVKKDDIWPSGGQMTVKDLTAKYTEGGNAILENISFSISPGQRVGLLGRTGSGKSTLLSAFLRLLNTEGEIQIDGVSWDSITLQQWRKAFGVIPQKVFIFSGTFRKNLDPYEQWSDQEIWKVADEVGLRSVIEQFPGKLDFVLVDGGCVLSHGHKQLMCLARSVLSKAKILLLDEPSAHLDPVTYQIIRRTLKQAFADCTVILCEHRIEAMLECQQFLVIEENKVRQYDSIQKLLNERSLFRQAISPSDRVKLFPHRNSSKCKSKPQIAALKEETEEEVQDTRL

For orientation: EC50 means the concentration that produces a half-maximal response. In the case of `Cc1cccc(C)c1-c1cc2nc(n1)NS(=O)(=O)c1cccc(c1)NC(=O)c1cccc(c1C)O2` (racemic) [Compound 59, 5-(2,6-Dimethylphenyl)-21-methyl-9,9-dioxo-2-oxa-9λ^6-thia-6,8,15,23-tetraazatetracyclo[15.3.1.13,7.110,14]tricosa-1(20),3,5,7(23),10(22),11,13,17(21),18-nonaen-16-one], the EC50 was less than 1 µM and the Emax is more than 60%.
Take `Cc1cccc(C)c1-c1cc2nc(n1)NS(=O)(=O)c1cccc(c1)NC(=O)[C@H]1C[C@@H](CN(C(=O)OC(C)(C)C)C1)O2` (single isomer, unassigned) [Compound 4]: the EC50 was less than 1 µM and the Emax is more than 60%.
In the case of `Cc1cccc(C)c1-c1cc2nc(n1)NS(=O)(=O)c1cccc(c1)NC(=O)c1cccc(c1C)O2` (single isomer, unassigned) [Compound 60, (+)-5-(2,6-Dimethylphenyl)-21-methyl-9,9-dioxo-2-oxa-9λ^6-thia-6,8,15,23-tetraazatetracyclo[15.3.1.13,7.110,14]tricosa-1(20),3,5,7(23),10(22),11,13,17(21),18-nonaen-16-one], the EC50 was less than 1 µM and the Emax was more than 60%.
In the case of `Cc1cccc(C)c1-c1cc2nc(n1)NS(=O)(=O)c1cccc(c1)NC(=O)c1cccc(c1C)O2` (single isomer, unassigned) [Compound 61, (−)-5-(2,6-dimethylphenyl)-21-methyl-9,9-dioxo-2-oxa-9λ^6-thia-6,8,15,23-tetraazatetracyclo[15.3.1.13,7.110,14]tricosa-1(20),3,5,7(23),10(22),11,13,17(21),18-nonaen-16-one], the EC50 was less than 1 µM.
On to `Cc1cccc(C)c1-c1cc2nc(n1)NS(=O)(=O)c1cccc(c1)NC(=O)c1cc(ccc1N1CCCCC1)O2` [Compound 56, 5-(2,6-Dimethylphenyl)-9,9-dioxo-18-(1-piperidyl)-2-oxa-9λ^6-thia-6,8,15,23-tetraazatetracyclo[15.3.1.13,7.110,14]tricosa-1(21),3,5,7(23),10(22),11,13,17,19-nonaen-16-one], for which the EC50 was less than 1 µM and the Emax is more than 60%.
Consider `CC1(C)CCCCC1c1cc2nc(n1)NS(=O)(=O)c1cccc(c1)NC(=O)c1cccc(c1)O2` (stereo not shown) [Compound 75, 5-(2,2-Dimethylcyclohexyl)-9,9-dioxo-2-oxa-9λ^6-thia-6,8,15,23-tetraazatetracyclo[15.3.1.13,7.110,14]tricosa-1(20),3,5,7(23),10(22),11,13,17(21),18-nonaen-16-one], for which the EC50 is less than 1 µM and the Emax was more than 60%.
On to `O=C1Nc2cccc(c2)S(=O)(=O)Nc2nc(cc(-c3ccccc3)n2)Oc2cccc1c2` [Compound 82], for which the EC50 was in the range of 1 to 3 µM and the Emax was more than 60%.
For `Nc1ccccc1-c1cc2nc(n1)NS(=O)(=O)c1cccc(c1)NC(=O)c1cccc(c1)O2` [Compound 83], in that order: 3 to 30 µM and more than 60%.
Consider `O=C1Nc2cccc(c2)S(=O)(=O)Nc2nc(cc(-c3ccccc3O)n2)Oc2cccc1c2` [Compound 84], for which the EC50 lay in the range of 3 to 30 µM and the Emax was more than 60%.
Regarding `Cc1nn(C)c(C)c1-c1cc2nc(n1)NS(=O)(=O)c1cccc(c1)NC(=O)c1cccc(c1)O2` [Compound 85], the Emax is less than 30%.
In the case of `O=C1Nc2cccc(c2)S(=O)(=O)Nc2nc(cc(-c3ccco3)n2)Oc2cccc1c2` [Compound 86], the EC50 fell in the range of 3 to 30 µM and the Emax is more than 60%.
`COc1ccccc1-c1cc2nc(n1)NS(=O)(=O)c1cccc(c1)NC(=O)c1cccc(c1)O2` [Compound 87]: the EC50 was in the range of 1 to 3 µM and the Emax is more than 60%.
As to `Cc1cccc(C)c1-c1cc2nc(n1)NS(=O)(=O)c1cccc(c1)NC(=O)c1cccc(c1)CCO2` [Compound 94], the EC50 was in the range of 1 to 3 µM and the Emax fell in the range of 30 to 60%.
`Cc1cccc(C)c1-c1cc2nc(n1)NS(=O)(=O)c1cccc(c1)NC(=O)C(NC(=O)OC(C)(C)C)CCO2` (stereo not shown) [Compound 95]: the EC50 was less than 1 µM and the Emax was more than 60%.
For `Cc1cccc(C)c1-c1cc2nc(n1)NS(=O)(=O)c1cccc(c1)NC(=O)C(N)CCO2` (stereo not shown) [Compound 96], the concentration giving a half-maximal response (EC50) was in the range of 1 to 3 µM and the Emax is more than 60%.
As to `Cc1cccc(C)c1-c1cc2nc(n1)NS(=O)(=O)c1cccc(c1)NC(=O)CCCCCO2` [Compound 97], the EC50 is less than 1 µM and the Emax was more than 60%.
Consider `Cc1cccc(C)c1-c1cc2nc(n1)NS(=O)(=O)c1cccc(c1)NC(=O)C1CC(CN1C(=O)OC(C)(C)C)O2` (stereo not shown) [Compound 98], for which the EC50 fell in the range of 1 to 3 µM and the Emax is more than 60%.
Turning to `Cc1cccc(C)c1-c1cc2nc(n1)NS(=O)(=O)c1cccc(c1)NC(=O)c1cc(cc(N3CCNCC3)c1)O2` [Compound 99], the EC50 is 3 to 30 µM and the Emax is 30 to 60%.
Consider `Cc1cccc(C)c1-c1cc2nc(n1)NS(=O)(=O)c1cccc(c1)NC(=O)c1cc(ccc1N1CCC(O)CC1)O2` [Compound 100], for which the EC50 lay within 3 to 30 µM and the Emax was more than 60%.
Regarding `Cc1cccc(C)c1-c1cc2nc(n1)NS(=O)(=O)c1cccc(c1)NC(=O)c1cc(ccc1NC1CCCC(N)C1)O2` (stereo not shown) [Compound 101], the EC50 lay within 3 to 30 µM and the Emax was more than 60%.
`CNC1CCCCC1N(C)c1ccc2cc1C(=O)Nc1cccc(c1)S(=O)(=O)Nc1nc(cc(-c3c(C)cccc3C)n1)O2` (stereo not shown) [Compound 102]: the Emax was in the range of 30 to 60%.
`Cc1cccc(C)c1-c1cc2nc(n1)NS(=O)(=O)c1cccc(c1)NC(=O)c1cc(ccc1NC1CCCCC1N)O2` (stereo not shown) [Compound 103]: the EC50 was in the range of 1 to 3 µM and the Emax is more than 60%.
On to `CNCCN(C)c1ccc2cc1C(=O)Nc1cccc(c1)S(=O)(=O)Nc1nc(cc(-c3c(C)cccc3C)n1)O2` [Compound 104], for which the EC50 is 3 to 30 µM and the Emax lay in the range of 30 to 60%.
For `Cc1cccc(C)c1-c1cc2nc(n1)NS(=O)(=O)c1cccc(c1)NC(=O)c1cc(ccc1NCCN)O2` [Compound 105], in that order: 1 to 3 µM and more than 60%.
For `Cc1cccc(C)c1-c1cc2nc(n1)NS(=O)(=O)c1cccc(c1)NC(=O)c1cc(ccc1N1CCNCC1)O2` [Compound 106], the EC50 lay within 3 to 30 µM and the Emax is more than 60%.
`Cc1ccccc1-c1cc2nc(n1)NS(=O)(=O)c1cccc(c1)N(C)C(=O)c1ccc(cc1)O2` [Compound 113]: the Emax is less than 30%.
Consider `Cc1ccccc1-c1cc2nc(n1)NS(=O)(=O)c1cccc(c1)N(C)C(=O)c1cccc(c1)O2` [Compound 115], for which the EC50 lay in the range of 3 to 30 µM and the Emax was more than 60%.
As for `Cc1cccc(C)c1-c1cc2nc(n1)NS(=O)(=O)c1cccc(c1)NC(=O)c1cccc(c1Cl)O2` [Compound 116], the EC50 is less than 1 µM and the Emax is more than 60%.

The values above are taken from patent US20230416275A1, “MODULATORS OF CYSTIC FIBROSIS TRANSMEMBRANE CONDUCTANCE REGULATOR” (VERTEX PHARMACEUTICALS INCORPORATED, priority 2020, published 2023).
